Experimental findings from patent US20080009418A1, “Selective Inhibitors” (Alchemia LTD., priority 2004, published 2008) are described below.

Assay [1] deals with T1, Human opioid (ORL1) (Homo sapiens, UniProt P41146).
T1 construct: purchased Perkin Elmer Biosignal
Kind of assay: Radioligand binding, human opioid ORL1 membranes, FlashPlate, [125I]-Nociceptin. The following applies: compound at 10 μM; human ORL1 membranes. Put shortly:
(§1)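 Cloned human receptor membranes were coated onto FlashPlate wells and incubated with radioligand and compound (added from a 0.5 mM DMSO daughter plate) for 1 hour at room temperature in the dark. Scintillation counting gave percent inhibition, with DMSO defining total and reference ligand defining non-specific binding.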

Assay [2] has as its target T2, Human melanocortin (MC5) (Homo sapiens, UniProt P33032).
T2 construct: purchased Perkin Elmer Biosignal
As to the kind of experiment: Radioligand binding, human melanocortin MC5 membranes, FlashPlate, [125I]-NDP-αMSH. The following applies: compound at 10 μM; human melanocortin MC5 membranes. Put shortly:
as §1

The target of assay [3] is T3, Human Melanocortin (MC3) (Homo sapiens, UniProt P41968).
T3 construct: purchased Perkin Elmer Biosignal
As to the kind of experiment: Radioligand binding, human melanocortin MC3 membranes, FlashPlate, [125I]-NDP-αMSH. The following applies: compound at 10 μM; human melanocortin MC3 membranes. The method in brief: as §1

For assay [4], the target named is T4, Human Melanocortin (MC4) (Homo sapiens, UniProt P32245).
T4 construct: purchased Perkin Elmer Biosignal
Kind of assay: Radioligand binding, human melanocortin MC4 membranes, FlashPlate, [125I]-NDP-αMSH. The following applies: compound at 10 μM; human melanocortin MC4 membranes. Put shortly:
as §1

Assay [5] concerns the target T5, Human κ-Opioid (KOP) (Homo sapiens, UniProt P41145).
T5 construct: purchased Perkin Elmer Biosignal
As to the kind of experiment: Radioligand binding, human κ-opioid (KOP) membranes, filtration, [3H]-Diprenorphine. As to conditions: compound at 10 μM; human κ-opioid (KOP) membranes. The method in brief: (§2)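 Filtration binding on cloned human receptor membranes (1 Unit/well), [125I]-Substance P for NK1 and [3H]-Diprenorphine for KOP, 1 h at room temperature. Filters PEI-presoaked, washed with cold 50 mM Tris-HCl pH 7.4, counted by scintillation; percent inhibition calculated, reference ligand defining non-specific binding.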

For assay [6], the target named is T6, Mouse urotensin (mUR2) (Mus musculus, UniProt Q8VIH9).
T6 construct: purchased Perkin Elmer Biosignal
T6 sequence (Q8VIH9 1-385): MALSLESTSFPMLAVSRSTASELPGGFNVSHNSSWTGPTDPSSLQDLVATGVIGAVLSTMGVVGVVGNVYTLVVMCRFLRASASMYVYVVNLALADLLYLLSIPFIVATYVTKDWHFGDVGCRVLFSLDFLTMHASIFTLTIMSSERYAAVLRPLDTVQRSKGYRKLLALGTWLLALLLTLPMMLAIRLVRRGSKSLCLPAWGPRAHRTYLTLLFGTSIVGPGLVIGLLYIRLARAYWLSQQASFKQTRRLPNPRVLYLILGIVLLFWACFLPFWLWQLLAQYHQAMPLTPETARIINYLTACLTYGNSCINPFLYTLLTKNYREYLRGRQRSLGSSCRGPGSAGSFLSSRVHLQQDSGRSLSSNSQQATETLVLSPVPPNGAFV
As to the kind of experiment: Radioligand binding, mouse urotensin mUR2 membranes, FlashPlate, [125I]-Urotensin II. The following applies: compound at 10 μM; mouse urotensin mUR2 membranes. Put shortly:
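Cloned mouse urotensin (mUR2) receptor membranes from Perkin Elmer Biosignal were immobilized in FlashPlate microplates using a proprietary coating. Each well got 19.5 μl buffer, then 0.5 μl of DMSO, reference ligand, or compound. Adding 5 μl of [125I]-Urotensin II, diluted to 5× final concentration in binding buffer, started binding. Plates were sealed with TopSeal-A and incubated 1 hour at room temperature in the dark. Wells were counted for 30 seconds each on a TopCount after a 60-second delay, and percentage inhibition was calculated.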

Assay [7] deals with T7, Human δ-opioid (DOP) (Homo sapiens, UniProt P41143).
T7 construct: purchased Perkin Elmer Biosignal
As to the kind of experiment: Radioligand binding, human δ-opioid (DOP) membranes, FlashPlate, [3H]-Bremazocine. As to conditions: compound at 10 μM; human δ-opioid (DOP) membranes. The method in brief:
as §1

Assay [8] concerns the target T8, Human μ-opioid (MOP) (Homo sapiens, UniProt P35372).
T8 construct: purchased Perkin Elmer Biosignal
As to the kind of experiment: Radioligand binding, human μ-opioid (MOP) membranes, FlashPlate, [3H]-Naloxone. The following applies: compound at 10 μM; human μ-opioid (MOP) membranes. The method in brief: as §1

In assay [9] the target is T9, Human neuropeptide Y (NPY-Y1) (Homo sapiens, UniProt P25929).
T9 construct: purchased Perkin Elmer Biosignal
T9 sequence (P25929 1-384): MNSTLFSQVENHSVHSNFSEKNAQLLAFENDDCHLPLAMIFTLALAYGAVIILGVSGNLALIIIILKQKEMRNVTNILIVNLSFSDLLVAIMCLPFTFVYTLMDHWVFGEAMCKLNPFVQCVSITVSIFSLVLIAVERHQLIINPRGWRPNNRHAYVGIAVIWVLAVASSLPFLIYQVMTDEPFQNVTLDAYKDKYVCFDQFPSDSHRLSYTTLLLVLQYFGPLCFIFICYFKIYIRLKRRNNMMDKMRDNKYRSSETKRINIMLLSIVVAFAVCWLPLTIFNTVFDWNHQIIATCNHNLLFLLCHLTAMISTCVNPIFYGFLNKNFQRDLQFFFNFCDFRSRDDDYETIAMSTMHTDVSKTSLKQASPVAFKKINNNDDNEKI
As to the kind of experiment: Radioligand binding, human neuropeptide Y NPY-Y1 membranes, FlashPlate, [125I]-PYY. As to conditions: compound at 10 μM; human NPY-Y1 membranes. The method in brief: as §1

In assay [10] the target is T10, Human neurokinin (NK1) (Homo sapiens, UniProt P25103).
T10 construct: purchased Perkin Elmer Biosignal
As to the kind of experiment: Radioligand binding, human neurokinin NK1 membranes, filtration, [125I]-Substance P. As to conditions: compound at 10 μM; human neurokinin NK1 membranes. The method in brief:
as §2

Assay [11] addresses T11, Human melanin-concentrating hormone (MCH1) (Homo sapiens, UniProt Q99705).
T11 construct: purchased Perkin Elmer Biosignal
As to the kind of experiment: Radioligand binding, human melanin-concentrating hormone MCH1 membranes, FlashPlate, [125I]-S36057. As to conditions: compound at 10 μM; human MCH1 membranes. The method in brief:
as §1

T3 sequence (P41968 whole entry): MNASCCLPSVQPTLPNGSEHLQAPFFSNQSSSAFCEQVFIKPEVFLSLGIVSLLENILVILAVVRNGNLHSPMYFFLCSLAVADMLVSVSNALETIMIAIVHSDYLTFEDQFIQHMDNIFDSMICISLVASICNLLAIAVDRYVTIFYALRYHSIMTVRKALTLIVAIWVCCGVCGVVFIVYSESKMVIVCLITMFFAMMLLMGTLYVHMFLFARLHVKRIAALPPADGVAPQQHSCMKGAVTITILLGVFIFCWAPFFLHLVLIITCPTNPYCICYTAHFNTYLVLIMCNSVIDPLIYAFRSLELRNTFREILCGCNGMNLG
T5 sequence (P41145 whole entry): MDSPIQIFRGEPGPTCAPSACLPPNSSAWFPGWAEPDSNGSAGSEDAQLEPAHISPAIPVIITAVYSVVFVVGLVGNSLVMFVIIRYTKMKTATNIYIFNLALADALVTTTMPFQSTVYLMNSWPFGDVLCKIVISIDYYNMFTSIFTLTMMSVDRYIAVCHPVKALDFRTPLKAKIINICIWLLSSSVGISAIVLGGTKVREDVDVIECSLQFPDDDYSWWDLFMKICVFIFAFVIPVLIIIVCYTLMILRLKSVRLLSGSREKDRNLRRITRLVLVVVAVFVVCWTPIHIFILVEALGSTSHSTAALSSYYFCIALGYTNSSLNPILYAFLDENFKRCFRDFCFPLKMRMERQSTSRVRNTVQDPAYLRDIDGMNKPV
T11 sequence (Q99705 whole entry): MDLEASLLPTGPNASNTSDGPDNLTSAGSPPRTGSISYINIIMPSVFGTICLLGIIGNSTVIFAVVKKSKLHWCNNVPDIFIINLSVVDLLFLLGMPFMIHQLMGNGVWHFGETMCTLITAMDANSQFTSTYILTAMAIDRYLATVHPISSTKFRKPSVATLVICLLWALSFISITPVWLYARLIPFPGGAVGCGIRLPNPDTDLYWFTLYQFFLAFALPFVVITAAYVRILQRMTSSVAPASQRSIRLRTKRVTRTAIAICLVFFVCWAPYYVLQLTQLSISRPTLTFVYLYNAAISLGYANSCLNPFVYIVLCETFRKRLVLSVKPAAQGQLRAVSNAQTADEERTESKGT
T10 sequence (P25103 whole entry): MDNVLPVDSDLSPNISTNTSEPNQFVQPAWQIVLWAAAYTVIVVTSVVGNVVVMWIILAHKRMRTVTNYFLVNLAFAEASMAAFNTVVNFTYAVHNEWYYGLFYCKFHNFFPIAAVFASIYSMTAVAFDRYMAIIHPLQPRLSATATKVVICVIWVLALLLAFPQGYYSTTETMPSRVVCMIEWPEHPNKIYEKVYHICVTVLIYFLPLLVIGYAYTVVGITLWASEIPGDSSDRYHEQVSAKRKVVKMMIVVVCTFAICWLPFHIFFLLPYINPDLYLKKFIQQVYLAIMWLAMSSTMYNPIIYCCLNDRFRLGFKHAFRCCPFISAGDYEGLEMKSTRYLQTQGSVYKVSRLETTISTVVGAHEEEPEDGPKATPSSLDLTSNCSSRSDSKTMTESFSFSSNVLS
T8 sequence (P35372 whole entry): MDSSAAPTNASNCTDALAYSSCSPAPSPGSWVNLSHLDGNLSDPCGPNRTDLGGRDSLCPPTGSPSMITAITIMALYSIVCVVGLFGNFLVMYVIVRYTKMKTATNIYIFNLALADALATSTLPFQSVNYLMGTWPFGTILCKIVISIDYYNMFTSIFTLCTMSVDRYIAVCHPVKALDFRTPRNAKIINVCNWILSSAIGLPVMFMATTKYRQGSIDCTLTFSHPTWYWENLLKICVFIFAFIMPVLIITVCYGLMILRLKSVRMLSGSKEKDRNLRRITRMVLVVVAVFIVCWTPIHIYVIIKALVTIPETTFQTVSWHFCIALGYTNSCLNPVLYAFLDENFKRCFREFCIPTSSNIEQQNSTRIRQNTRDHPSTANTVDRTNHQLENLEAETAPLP
T1 sequence (P41146 whole entry): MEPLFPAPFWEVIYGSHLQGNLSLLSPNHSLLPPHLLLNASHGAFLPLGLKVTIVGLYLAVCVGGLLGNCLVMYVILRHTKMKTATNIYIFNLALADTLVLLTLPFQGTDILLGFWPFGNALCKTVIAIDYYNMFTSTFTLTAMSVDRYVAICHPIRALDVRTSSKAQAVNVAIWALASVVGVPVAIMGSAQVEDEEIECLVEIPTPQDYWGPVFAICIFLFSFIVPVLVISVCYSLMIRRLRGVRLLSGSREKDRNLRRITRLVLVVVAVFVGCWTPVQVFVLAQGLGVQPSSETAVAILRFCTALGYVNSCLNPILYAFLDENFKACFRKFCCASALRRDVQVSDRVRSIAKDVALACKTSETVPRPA
T2 sequence (P33032 whole entry): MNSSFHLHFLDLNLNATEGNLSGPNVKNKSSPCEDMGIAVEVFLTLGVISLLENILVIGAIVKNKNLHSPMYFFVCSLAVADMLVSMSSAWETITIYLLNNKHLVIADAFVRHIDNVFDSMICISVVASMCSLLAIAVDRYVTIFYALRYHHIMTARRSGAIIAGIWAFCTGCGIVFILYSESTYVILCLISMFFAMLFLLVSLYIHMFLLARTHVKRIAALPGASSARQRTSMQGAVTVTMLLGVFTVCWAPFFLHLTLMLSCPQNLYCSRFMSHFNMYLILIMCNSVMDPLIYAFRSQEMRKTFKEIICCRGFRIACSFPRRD
T4 sequence (P32245 whole entry): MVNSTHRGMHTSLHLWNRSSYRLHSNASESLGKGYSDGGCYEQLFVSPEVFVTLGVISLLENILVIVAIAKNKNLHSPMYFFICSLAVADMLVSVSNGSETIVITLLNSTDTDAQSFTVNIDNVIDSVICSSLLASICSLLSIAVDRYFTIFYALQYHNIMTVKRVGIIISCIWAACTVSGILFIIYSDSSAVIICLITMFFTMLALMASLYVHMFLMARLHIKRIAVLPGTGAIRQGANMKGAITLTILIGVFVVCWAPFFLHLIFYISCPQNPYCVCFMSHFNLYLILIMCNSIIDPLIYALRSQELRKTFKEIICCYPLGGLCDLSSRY
T7 sequence (P41143 whole entry): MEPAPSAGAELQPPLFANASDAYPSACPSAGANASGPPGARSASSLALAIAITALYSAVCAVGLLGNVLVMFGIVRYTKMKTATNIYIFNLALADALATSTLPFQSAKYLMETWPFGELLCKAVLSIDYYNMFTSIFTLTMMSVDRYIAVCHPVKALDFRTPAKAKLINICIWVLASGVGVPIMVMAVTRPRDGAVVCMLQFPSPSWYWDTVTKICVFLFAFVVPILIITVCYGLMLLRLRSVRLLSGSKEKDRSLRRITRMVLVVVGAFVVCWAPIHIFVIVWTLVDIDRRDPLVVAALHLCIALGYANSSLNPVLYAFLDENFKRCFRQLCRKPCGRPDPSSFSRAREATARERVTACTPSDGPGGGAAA

On to `CO[C@H]1[C@H](O)[C@@H](COCc2ccc(Cl)cc2)OC(OCc2ccc(-c3ccccc3)cc2)[C@@H]1NC(=O)CCNC(=N)N` (stereo partly shown) [compound 63], for which, in [1], the “A10 radioligand binding inhibition” value is given as “+ (“+” indicates greater than 50% inhibition at 10 μM)”. Moreover, the “A5 radioligand binding inhibition” value in assay [2] is on record as “+ (“+” indicates greater than 50% inhibition at 10 μM)”. Besides, in assay [3], the “A3 radioligand binding inhibition” value is given as “+ (“+” indicates greater than 50% inhibition at 10 μM)”. Further, the “A4 radioligand binding inhibition” value in assay [4] was “+ (“+” indicates greater than 50% inhibition at 10 μM)”. Also, the “A2 radioligand binding inhibition” value in assay [5] is “+ (“+” indicates greater than 50% inhibition at 10 μM)”. Besides, the “A11 radioligand binding inhibition” value in [6] was “− (“−” indicates less than 50% inhibition at 10 μM)”. For the same molecule, the “A1 radioligand binding inhibition” value in assay [7] is given as “− (“−” indicates less than 50% inhibition at 10 μM)”. For the same molecule, the “A7 radioligand binding inhibition” value in assay [8] is on record as “+ (“+” indicates greater than 50% inhibition at 10 μM)”. For the same molecule, the “A9 radioligand binding inhibition” value in assay [9] is reported as “+ (“+” indicates greater than 50% inhibition at 10 μM)”. For the same molecule, in [10], the “A8 radioligand binding inhibition” value is reported as “+ (“+” indicates greater than 50% inhibition at 10 μM)”. In addition, in assay [11], the “A6 radioligand binding inhibition” value is on record as “+ (“+” indicates greater than 50% inhibition at 10 μM)”.

For `CO[C@H]1[C@H](O)[C@@H](COCc2ccc(Cl)cc2)OC(OCc2ccc(-c3ccccc3)cc2)[C@@H]1NC(=O)CCCN` (stereo partly shown) [compound 64], the “A10 radioligand binding inhibition” value in [1] is reported as “− (“−” indicates less than 50% inhibition at 10 μM)”. Further, the “A5 radioligand binding inhibition” value in [2] is “+ (“+” indicates greater than 50% inhibition at 10 μM)”. Moreover, the “A3 radioligand binding inhibition” value in assay [3] was “+ (“+” indicates greater than 50% inhibition at 10 μM)”. In addition, the “A4 radioligand binding inhibition” value in assay [4] is reported as “− (“−” indicates less than 50% inhibition at 10 μM)”. Moreover, the “A2 radioligand binding inhibition” value in assay [5] is listed as “− (“−” indicates less than 50% inhibition at 10 μM)”. The “A11 radioligand binding inhibition” value in assay [6] is recorded as “− (“−” indicates less than 50% inhibition at 10 μM)”. In assay [7], the “A1 radioligand binding inhibition” value is listed as “− (“−” indicates less than 50% inhibition at 10 μM)”. Further, in assay [8], the “A7 radioligand binding inhibition” value was “− (“−” indicates less than 50% inhibition at 10 μM)”. For the same molecule, the “A9 radioligand binding inhibition” value in assay [9] is given as “− (“−” indicates less than 50% inhibition at 10 μM)”. The “A8 radioligand binding inhibition” value in assay [10] was “+ (“+” indicates greater than 50% inhibition at 10 μM)”. Moreover, in [11], the “A6 radioligand binding inhibition” value is on record as “− (“−” indicates less than 50% inhibition at 10 μM)”.

As to `CO[C@H]1[C@H](O)[C@@H](COCc2ccc(Cl)cc2)OC(OCc2ccc(-c3ccccc3)cc2)[C@@H]1NC(=O)CCCNC(=N)N` (stereo partly shown) [compound 65], the “A10 radioligand binding inhibition” value in assay [1] was “− (“−” indicates less than 50% inhibition at 10 μM)”. Also, the “A5 radioligand binding inhibition” value in assay [2] is recorded as “+ (“+” indicates greater than 50% inhibition at 10 μM)”. The “A3 radioligand binding inhibition” value in assay [3] was “+ (“+” indicates greater than 50% inhibition at 10 μM)”. In assay [4], the “A4 radioligand binding inhibition” value was “+ (“+” indicates greater than 50% inhibition at 10 μM)”. Further, the “A2 radioligand binding inhibition” value in assay [5] was “− (“−” indicates less than 50% inhibition at 10 μM)”. In addition, the “A11 radioligand binding inhibition” value in assay [6] was “− (“−” indicates less than 50% inhibition at 10 μM)”. For the same molecule, the “A1 radioligand binding inhibition” value in [7] was “− (“−” indicates less than 50% inhibition at 10 μM)”. For the same molecule, the “A7 radioligand binding inhibition” value in assay [8] is on record as “+ (“+” indicates greater than 50% inhibition at 10 μM)”. In addition, the “A9 radioligand binding inhibition” value in assay [9] is listed as “− (“−” indicates less than 50% inhibition at 10 μM)”. The “A8 radioligand binding inhibition” value in [10] was “+ (“+” indicates greater than 50% inhibition at 10 μM)”. In assay [11], the “A6 radioligand binding inhibition” value is given as “− (“−” indicates less than 50% inhibition at 10 μM)”.

Regarding `CO[C@H]1[C@H](O)[C@@H](COCc2ccc(-c3ccccc3)cc2)OC(OCc2ccc3ccccc3c2)[C@@H]1NC(=O)CNC(=N)N` (stereo partly shown) [compound 66], in assay [1], the “A10 radioligand binding inhibition” value is recorded as “− (“−” indicates less than 50% inhibition at 10 μM)”. Besides, the “A5 radioligand binding inhibition” value in assay [2] was “+ (“+” indicates greater than 50% inhibition at 10 μM)”. In addition, the “A3 radioligand binding inhibition” value in [3] is given as “+ (“+” indicates greater than 50% inhibition at 10 μM)”. For the same molecule, the “A4 radioligand binding inhibition” value in [4] is given as “+ (“+” indicates greater than 50% inhibition at 10 μM)”. Besides, the “A2 radioligand binding inhibition” value in assay [5] is given as “− (“−” indicates less than 50% inhibition at 10 μM)”. Moreover, in assay [6], the “A11 radioligand binding inhibition” value is given as “− (“−” indicates less than 50% inhibition at 10 μM)”. The “A1 radioligand binding inhibition” value in [7] is listed as “− (“−” indicates less than 50% inhibition at 10 μM)”. Moreover, in assay [8], the “A7 radioligand binding inhibition” value is given as “+ (“+” indicates greater than 50% inhibition at 10 μM)”. For the same molecule, in assay [9], the “A9 radioligand binding inhibition” value is “− (“−” indicates less than 50% inhibition at 10 μM)”. In assay [10], the “A8 radioligand binding inhibition” value is “+ (“+” indicates greater than 50% inhibition at 10 μM)”. The “A6 radioligand binding inhibition” value in [11] was “+ (“+” indicates greater than 50% inhibition at 10 μM)”.

On to `CO[C@H]1[C@H](O)[C@@H](COCc2ccc(-c3ccccc3)cc2)OC(OCc2ccc3ccccc3c2)[C@@H]1NC(=O)CCNC(=N)N` (stereo partly shown) [compound 67], for which the “A10 radioligand binding inhibition” value in assay [1] is recorded as “+ (“+” indicates greater than 50% inhibition at 10 μM)”. Moreover, in [2], the “A5 radioligand binding inhibition” value is listed as “+ (“+” indicates greater than 50% inhibition at 10 μM)”. In addition, the “A3 radioligand binding inhibition” value in [3] is “+ (“+” indicates greater than 50% inhibition at 10 μM)”. Also, in [4], the “A4 radioligand binding inhibition” value is listed as “+ (“+” indicates greater than 50% inhibition at 10 μM)”. In assay [5], the “A2 radioligand binding inhibition” value is “− (“−” indicates less than 50% inhibition at 10 μM)”. Further, the “A11 radioligand binding inhibition” value in assay [6] is “− (“−” indicates less than 50% inhibition at 10 μM)”. The “A1 radioligand binding inhibition” value in assay [7] was “+ (“+” indicates greater than 50% inhibition at 10 μM)”. For the same molecule, in assay [8], the “A7 radioligand binding inhibition” value was “+ (“+” indicates greater than 50% inhibition at 10 μM)”. For the same molecule, the “A9 radioligand binding inhibition” value in assay [9] is given as “− (“−” indicates less than 50% inhibition at 10 μM)”. Moreover, in assay [10], the “A8 radioligand binding inhibition” value is “+ (“+” indicates greater than 50% inhibition at 10 μM)”. Besides, in assay [11], the “A6 radioligand binding inhibition” value is reported as “+ (“+” indicates greater than 50% inhibition at 10 μM)”.
